# Tested on: mixed culture consortium of three root canal isolates, E. faecalis, L. salivarius and S. gordonii
# Assay: biofilm formation in mini-flow chamber system, CSLM with LIVE/DEAD staining
# Format: cell-based
# Method: First, a microbial consortium was created using bacterial strains, E. faecalis, L. salivarius and S. gordonii which were isolated from endodontic therapy associated with persistent infections. The strains were stored at −70° C. using skim milk powder (Oxoid, Cambridge, United Kingdom), diluted in double distilled water and were recovered on blood agar in an atmosphere of 5% CO2 in hydrogen at 37° C. for 24 hours. Then, four to five colonies of each strain were transferred into liquid growth medium (Todd-Hewitt broth) and incubated in an atmosphere of 5% CO2 in hydrogen at 37° C. The optical densities (OD600) of the liquid cultures were monitored until exponential growth was reached, that is, until OD600 values of 0.6±0.1. The cells were harvested by centrifugation (3000 g, five minutes at 4° C.), washed in 10 mM PBS and re-suspended in Todd-Hewitt broth to an approximate cell concentration of 1×108 ml^−1. […]
# Then, the mini-flow chamber biofilms were inspected. […] CSLM images were analyzed in 2 and 3-D by using the software bioimage_L. […]
# Each experiment was repeated three times and the statistical analysis was performed by two-way analysis of variance (ANOVA). Two-way ANOVA detected any significant variation among biofilms formed on surfaces pre-conditioned with the composition according to the present invention, NaOCl and the uncoated controls. […]
smiles,measurement,setting,value
[Na+].[O-]Cl [NaOCl],viability of biofilm cells (LIVE/DEAD staining),"all tests, proportions of green-viable cells",not compromised
same,biovolume of biofilms relative to composition-preconditioned surfaces and uncoated controls,preconditioned surfaces,intermediate

# — US20160303000A1, “COMPOSITION AND METHOD FOR REDUCING BACTERIAL BIOFILM FORMATION IN CONNECTION WITH A DENTAL PROCEDURE” (Loma Linda University, priority 2011, published 2016)
